Results: US10253236B2, “Environmental friendly well treatment fluids comprising an ester” (AMRIL AG, priority 2013, dated 2019)

Columns and labels:
[1] = Electrical stability of the oil based mud (Model 23D Electrical Stability Tester, API 13B-2); format: physicochemical; settings: 2.5 g additive in oil based mud, measuring temp. 50° C.
Protocol: (§1) An oil based well treatment fluid was prepared as follows: the indicated amounts of the following ingredients are mixed using a Silverson Mixer (model L4RT) in the following order: synthetic paraffin, filtration control agent (a polymer: preferably Adapta by Halliburton), Ca(OH)2, Amidoamin (Terradril EM 1122), Water, CaCl2*2H2O, BaSO4, ball clay.
(§2) Next, either an ester of the invention (for example azelaic ricinoleate or an ester based on a C21 dimer acid and ricinoleic acid) or a conventional viscosifier (C36 dimer acid) is added to the mixture and to obtain the final emulsion a standard Hamilton Beach mixer was used, following manufacturer's instructions.
(§3) Next, the rheological characteristics including the fluids-plastic viscosity (PV), yield point (YP) and gel strength (gels 10″/10′) after 10 seconds and 10 minutes were determined with a Fann SR 12/Model 35 rheometer (Fann). In addition to the rheological characteristics, the electrical stability was tested using a Model 23D Electrical Stability Tester, following manufacturer's instructions, in accordance with API recommended practice 13B-2, December 1991.
(§4) The well treatment fluid was also tested in a Roller Oven for the indicated times at the indicated temperatures (after hot rolling=AHR and before hot rolling=BHR as indicated in the Table). As roller oven, a Baroid Laboratory Roller Oven was used, following manufacturer's instructions.

[2] = Rheological characteristics of the oil based mud (Fann SR 12/Model 35 rheometer); format: physicochemical; settings: 2.5 g additive in oil based mud, measuring temp. 50° C.
Protocol: as §1, §2, §3, §4

seawater bacteria = test: Inhibition to seawater bacteria (Marine BODIS test); settings: natural seawater
Protocol: This method uses natural seawater (salinity 34%-37%) with added mineral nutrients (8.5 g/l KH2PO4, 21.7 g/l K2HPO4, 29.92 g/l Na2HPO4.2H2O, 0.5 g/l NH4Cl, 31.84 CaCl2, 22.5 g/l MgSO4.7H2O, 0.25 g/l FeCl3.6H2O, 0.4 g/l EDTA) and no inoculum was added in addition to the microorganisms already present in the seawater. The test vessels were closed glass bottles with a known volume of aqueous test mixture (66.6%) and air (33.3%). They were shaken continuously to assure steady state oxygen partitioning between the aqueous and gaseous phase. The degradation was followed by weekly measurements of the biochemical oxygen demand (BOD) in the aqueous phase for a 28-day period. The test vessels were re-aerated and resealed after measurement. The total oxygen uptake in the test flasks was calculated from the measured oxygen concentration divided by the saturation value at normal conditions and multiplied with the total oxygen content originally present in the aqueous and gaseous phases.
Three replicates were used for each test condition: test substance, controls, and insoluble reference substance. The total oxygen capacity of each test vessel was 26.64 mg oxygen. […]

[3] = AHR (after hot rolling) 16 h (System 4: 15 h) at 150 °F
[4] = AHR 16 h (System 4: 15 h) at 150 °F

| Compound | Electrical stab. [1, 3] | Electrical stab. ([1]; BHR (before hot rolling)) | 3 rpm [2, 4] | 6 rpm [2, 4] | 100 rpm [2, 4] | 200 rpm [2, 4] | 300 rpm [2, 4] | 600 rpm [2, 4] | Gels 10′ (gel strength after 10 minutes) [2, 4] | Gels 10″ (gel strength after 10 seconds) [2, 4] | PV (plastic viscosity) [2, 4] | YP (yield point) [2, 4] | 3 rpm ([2]; BHR) | 6 rpm ([2]; BHR) | 100 rpm ([2]; BHR) | 200 rpm ([2]; BHR) | 300 rpm ([2]; BHR) | 600 rpm ([2]; BHR) | Gels 10′ (gel strength after 10 minutes) ([2]; BHR) | Gels 10″ (gel strength after 10 seconds) ([2]; BHR) | also measured |
| --- | --- | --- | --- | --- | --- | --- | --- | --- | --- | --- | --- | --- | --- | --- | --- | --- | --- | --- | --- | --- | --- |
| CCCCCCC(CC=CCCCCCCCC(=O)O)OC(=O)CCCCCCCC(=O)O (stereo not shown) [Azelaic ricinoleate, azelaic ricinoleate] | 802 V | 760 V | 24 skt | 24 skt | 30 skt | 37 skt | 44 skt | 59 skt | 25 lb/100 ft^2 | 22 lb/100 ft^2 | 15 cP | 29 lb/100 ft^2 | 25 skt | 25 skt | 31 skt | 38 skt | 44 skt | 59 skt | 25 lb/100 ft^2 | 20 lb/100 ft^2 | PV (plastic viscosity) ([2]; BHR): 15 cP; YP (yield point) ([2]; BHR): 29 lb/100 ft^2; inhibition to seawater bacteria (seawater bacteria): −14% |
| C36 dimer acid | 830 V | 795 V | 10 skt | 12 skt | 23 skt | 29 skt | 35 skt | 49 skt | 15 lb/100 ft^2 | 11 lb/100 ft^2 | 14 cP | 21 lb/100 ft^2 | 15 skt | 15 skt | 25 skt | 32 skt | 39 skt | 52 skt | 19 lb/100 ft^2 | 16 lb/100 ft^2 | PV (plastic viscosity) ([2]; BHR): 13 cP; YP (yield point) ([2]; BHR): 26 lb/100 ft^2; inhibition to seawater bacteria (seawater bacteria): −1% |
